Earlier results, collected in patent US20060046961A1, “Controlled and directed local delivery of anti-inflammatory compositions” (priority 2004, published 2006).

Test system: PGE2 production
Conditions: cell culture

Structure (SMILES): COc1ccc2cc(CC(=O)O)ccc2c1 [6-methoxy-2-napthylacetic acid]
- PGE2 production: suppress
- local inflammation: suppress
